From US5606038A, “Amphiphilic polyene macrolide antibiotic compounds” (Competitive Technologies, Inc., priority 1995, dated 1997)
In brackets after ≈: the same amount, converted by molar mass.

Key:
[1] = UV-vis spectroscopy of interaction with cholesterol-containing large unilamellar vesicles; details: 2.6 μM; 1 mM egg PC and 0.5 mM cholesterol; 20 minutes, 23° C.
From the text: In order to confirm that the poly(ethylene glycol)conjugates of the present invention retain their ability to recognize ergosterol-rich bilayers, their interaction with sterol-containing large unilamellar vesicles (1000 A diameter, LUVs) by UV-vis spectroscopy using published techniques [see J. Am. Chem. Soc. 115:708 (1993)]. […] Thus, the poly(ethylene glycol) conjugates according to the present invention recognize ergosterol-rich bilayers in a way that is similar to Amphotericin B.

Candida albicans = assay: K+ release from fungal cells; type: cell-based; details: 3×10^7 fungal cells/ml, read-out: concentration for releasing 50% of the K+ from fungal cells
Aspergillus fumigatus = assay: minimum inhibitory concentration, Aspergillus fumigatus, broth microdilution; type: cell-based; details: 24 h, 37° C.
Method: Microorganism inocula was harvested from one to five day old cultures grown on Sabourand's dextrose agar. After two washes with sterile saline, the inocula were counted utilizing a hemacytometer and diluted or concentrated as required to 1×10^4 blastospores per ml. Sterile molten agar (at 50° C.) was inoculated, allowed to cool, and 10 mm diameter discs impregnated (from […] stock solutions) with each of the test compounds was placed on the surface of the agar. Zones of inhibition were measured after incubating the plates at 30° C. for 24-48 hours.
The compounds were then screened against three strains of three species of microorganisms: Candida albicans, Cryptococcus neoformans, and Aspergillus fumigatus using a conventional double dilution technique. All tests reported in Table II were done by broth microdilution in yeast nitrogen base-glucose using an inoculum of 1×10^4 blastospores per ml; the cultures were incubated at 37° C. for 24 hours, and the minimum concentration (in μg/ml) that prevents visible growth was recorded as the minimum inhibitory concentration.

## COCCOCCOCCOCCOCCOCCNC(=O)[C@H]1[C@@H]2C[C@@H](O[C@@H]3O[C@H](C)[C@@H](O)[C@H](N)[C@@H]3O)/C=C/C=C/C=C/C=C/C=C/C=C/C=C/[C@H](C)[C@@H](O)[C@@H](C)[C@H](C)OC(=O)C[C@H](O)C[C@H](O)CC[C@@H](O)[C@H](O)C[C@H](O)C[C@](O)(C[C@@H]1O)O2 [Example II]
[1]
  absorption spectrum with cholesterol-containing vesicles: essentially the same as that observed in the presence of egg phosphatidyl choline vesicles (without sterol)
Candida albicans
  EC50: 1 µM
Aspergillus fumigatus; A. fumigatus (1)
  MIC: 6.4 mg/L (≈ 5.33 µM)
Aspergillus fumigatus; A. fumigatus (2)
  MIC: 3.2 mg/L (≈ 2.66 µM)
Aspergillus fumigatus; A. fumigatus (3)
  MIC: 3.2 mg/L (≈ 2.66 µM)
